{"source": "patent US20190054019A1", "about": "“METHODS FOR USING REGULATORS FOR INCREASING THE EXPRESSION OR ACTIVATION OF P53 AND/OR REGULATORS FOR REDUCING OR INHIBITING THE EXPRESSION OF P63-ALPHA, FOR THE TREATMENT OF NON-ALCOHOLIC FATTY LIVER DISEASE (NAFLD) AND/OR NON-ALCOHOLIC STEATOHEPATITIS (NASH)” (Universidade de Santiago de Compostela, priority 2015, published 2019)", "key": {"[1]": {"tested_on": "mice of the C57/B6 strain fed with a HFD", "test": "Doxorubicin in C57/B6 mice fed HFD (60% fat)", "type": "in vivo", "conditions": "0.6 mg/kg i.p. twice per week, two months", "procedure": "Subsequently, mice were administered a dose of 0.6 mg/kg intra-peritoneally twice per week during a further period of two months."}, "[2]": {"test": "Doxorubicin intraperitoneal for 5 days in Swiss mice on standard diet: body weight", "type": "in vivo, mice of the Swiss strain"}, "[3]": {"tested_on": "HepG2", "test": "Accumulation of lipids induced by oleic acid in human hepatocytes (HepG2)", "type": "cell-based", "conditions": "48 h", "procedure": "The hepatocyte cell line of human origin HepG2 was treated with bovine serum albumin (BSA, which represents the control group), oleic acid (OA) and 50 nM oleic acid+doxorubicin for 48 h."}, "[4]": {"tested_on": "HFD-induced obese mice"}, "[5]": {"tested_on": "HepG2 cells", "test": "Response of HepG2 cells (control or p53 negative dominant) to etoposide", "type": "cell-based, human", "excerpt": "FIG. 9. Effect of p53 silencing in HepG2 cells. (A) Efficiency of the down-regulation of p53 in HepG2 cells transfected with adenoviruses expressing GFP alone or adenoviruses encoding a p53 negative dominant. (B) Oil red staining in HepG2 cells treated with etoposide at different concentrations. (C) Representative western blot of protein levels of peIF2α and Xbp1 in HepG2 cells non-treated and treated with etoposide. *p<0.05, n=4 per group.\nHepG2 cells were infected with adenoviruses expressing GFP alone or adenoviruses encoding a p53 negative dominant and treated with etoposide.\nHepG2 cells were infected with adenoviruses expressing GFP alone or adenoviruses encoding a p53 negative dominant. Infection efficiency was assessed by decreased expression of phosphor-p53 (pp53) (FIG. 9A). In order to investigate the response of control cells and cells with silenced p53, we challenged them to etoposide, a well established compound that induces stress."}, "[6]": {"conditions": "0.6 mg/kg i.p. twice per week, 2 months"}, "[7]": {"conditions": "0.6 mg/kg, two months, vs control vehicle"}, "[8]": {"conditions": "HepG2 cells treated with etoposide"}}}
{"compound": "COc1cccc2c1C(=O)c1c(O)c3c(c(O)c1C2=O)C[C@@](O)(C(=O)CO)C[C@@H]3O[C@H]1C[C@H](N)[C@H](O)[C@H](C)O1", "note": "[doxorubicin]", "values": [{"measurement": "body weight", "setting": "[1]", "value": "reduced their body weight significantly"}, {"measurement": "hepatic tryglicerides", "setting": "[1]", "value": "significantly reduced"}, {"measurement": "body weight change", "setting": "[2]; 0.3, 0.6, 1.25, 2.5 and 5 mg/kg intraperitoneal, 1 injection/day, dose dependent", "value": "significant loss of weight"}, {"measurement": "dosages capable of reducing the body weight significantly", "setting": "[2]; intraperitoneal", "value": "≥ 0.6", "unit": "mg/kg"}, {"measurement": "amount of lipids in the cells vs cells treated with oleic acid", "setting": "[3]; 50 nM oleic acid+doxorubicin", "value": "significant decrease in the amount of lipids"}, {"measurement": "body composition: muscle mass", "setting": "[4]; [6]", "value": "without altering the muscle mass"}, {"measurement": "body composition: quantity of fat", "setting": "[4]; [6]", "value": "reduce quantity of fat"}, {"measurement": "levels of troponine (marker of cardiovascular damage)", "setting": "[4]; 0.6 mg/kg i.p., serum", "value": "fails to significantly increase"}, {"measurement": "hepatic damage (histological study)", "setting": "[4]; 0.6 mg/kg, two months", "value": "reduced hepatic damage"}, {"measurement": "liver expression of inflammatory markers TNF-α, arginase, IL-6, NOS2 and F480", "setting": "[4]; 0.6 mg/kg, two months, mRNA", "value": "reduces the expression"}, {"measurement": "level of non-esterified fatty acids in the liver", "setting": "[4]; [7]", "value": "increased"}, {"measurement": "level of triglycerides in the liver", "setting": "[4]; [7]", "value": "reduced"}, {"measurement": "liver protein levels of ER stress genes pIRE, XBP1, CHOP, pJNK", "setting": "[4]; 0.6 mg/kg, two months, western blot", "value": "reduced the protein levels"}, {"measurement": "body weight", "setting": "[4]; all studied dosages (0.15, 0.3, 0.6, 1.25 mg/kg) i.p. twice per week, 2 months", "value": "significant loss of body weight"}]}
{"compound": "COc1cc([C@@H]2c3cc4c(cc3[C@@H](O[C@@H]3O[C@@H]5CO[C@@H](C)O[C@H]5[C@H](O)[C@H]3O)[C@H]3COC(=O)[C@H]23)OCO4)cc(OC)c1O", "note": "[etoposide]", "values": [{"measurement": "ER stress markers peIF2α and XBP1 in cells with silenced p53 vs control cells", "setting": "[5]; [8]", "value": "higher levels"}, {"measurement": "amount of lipid droplets in p53 dominant negative-infected cells vs control cells", "setting": "[5]; [8]", "value": "increased amount of lipid droplets"}, {"measurement": "lipid deposition (oil red staining)", "setting": "[5]; HepG2 cells, dose-dependent", "value": "increased lipid deposition"}]}
{"compound": "CCCCCCCC/C=C\\CCCCCCCC(=O)O", "note": "[oleic acid]", "values": [{"measurement": "amount of lipids in the cells vs BSA control", "setting": "[3]; oleic acid", "value": "significantly increases the amount of lipids"}]}
